From US9718828B2 (MERCK SHARP & DOHME CORP., priority 2011, dated 2017)

Target: hBTK (full-length BTK, 6HIS-tag cleaved) (Homo sapiens (Human), UniProt Q06187)
Test: BTK enzymatic activity, IMAP-FP assay (Assay Method B)
Type: biochemical
Conditions: IMAP-FP, 1.05 nM hBTK, 5 μM ATP; class 100-1000 is given as ≧100 nM-<1 μM; read-out: IC50 Btk activity values - Assay Method B
Description: BTK enzymatic activity was determined in an IMAP-FP assay (Immobilized Metal ion Affinity-based fluorescence Polarization; Molecular Devices). […] Phosphorylation reactions were allowed to proceed for 120 minutes and were immediately quenched by the addition of 40 μL IMAP detection beads resuspended in IMAP progressive binding buffer (beads were diluted 1:600 in 75% and 25% progressive binding buffer A and B, respectively; Molecular Devices). Plates were read on Packard microplate reader after 60 minutes binding equilibration using Fluorescence Polarization protocol.

Chain of hBTK (full-length BTK, 6HIS-tag cleaved) (Q06187 whole entry): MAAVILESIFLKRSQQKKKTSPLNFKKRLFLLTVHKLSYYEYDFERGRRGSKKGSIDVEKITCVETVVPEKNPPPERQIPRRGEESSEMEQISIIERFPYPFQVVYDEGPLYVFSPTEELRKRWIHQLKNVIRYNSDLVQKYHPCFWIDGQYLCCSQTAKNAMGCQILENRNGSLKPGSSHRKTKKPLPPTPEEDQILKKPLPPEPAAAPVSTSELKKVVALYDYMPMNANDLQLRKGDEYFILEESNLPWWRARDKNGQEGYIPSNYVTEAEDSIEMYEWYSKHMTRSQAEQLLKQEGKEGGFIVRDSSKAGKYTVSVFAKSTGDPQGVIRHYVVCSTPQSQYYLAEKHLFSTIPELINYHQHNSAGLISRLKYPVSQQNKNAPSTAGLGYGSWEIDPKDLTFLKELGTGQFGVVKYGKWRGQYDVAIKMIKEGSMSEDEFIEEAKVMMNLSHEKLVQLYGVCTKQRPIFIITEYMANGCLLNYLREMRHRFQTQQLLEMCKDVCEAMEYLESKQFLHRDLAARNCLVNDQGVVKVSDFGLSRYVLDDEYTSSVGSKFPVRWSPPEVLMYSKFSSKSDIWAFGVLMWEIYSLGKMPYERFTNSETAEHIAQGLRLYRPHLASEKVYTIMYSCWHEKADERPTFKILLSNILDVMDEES

SMILES	IC50
Cn1cc(CN2CCO[C@@H](c3nc(-c4ccc(C(=O)Nc5cc(C(F)(F)F)ccn5)cc4)c4c(N)nccn34)C2)cn1 [Example 495, 4-(8-amino-3-{(2R)-4-[(1-methyl-1H-pyrazol-4-yl)methyl]morpholin-2-yl}imidazo[1,5-a]pyrazin-1-yl)-N-[4-(trifluoromethyl)pyridin-2-yl]benzamide]	10 to 100 nM
Cn1cc(CN2CCS(=O)(=O)C(c3nc(-c4ccc(C(=O)Nc5cc(C(F)(F)F)ccn5)cc4)c4c(N)nccn34)C2)cn1 (centres unmarked) [Example 569, 4-(8-amino-3-{4-[(1-methyl-1H-pyrazol-4-yl)methyl]-1,1-dioxidothiomorpholin-2-yl}imidazo[1,5-a]pyrazin-1-yl)-N-[4-(trifluoromethyl)pyridin-2-yl]benzamide]	100 to 1000 nM
CC1(C(=O)N2CCC[C@@H](n3cc(-c4ccc(C(=O)Nc5cc(C#N)ccn5)cc4)c4c(N)ncnc43)C2)COC1 [Example 390, 4-(4-amino-7-{(3R)-1-[(3-methyloxetan-3-yl)carbonyl]piperidin-3-yl}-7H-pyrrolo[2,3-d]pyrimidin-5-yl)-N-(4-cyanopyridin-2-yl)benzamide]	10 to 100 nM
C[C@H]1CCN(C(=O)C2(C)COC2)C[C@@H]1c1nc(-c2ccc(C(=O)Nc3cc(C(F)(F)F)ccn3)cc2)c2c(N)nccn12 [Example 378, 4-(8-amino-3-{(3R,4S)-4-methyl-1-[(3-methyloxetan-3-yl)carbonyl]piperidin-3-yl}imidazo[1,5-a]pyrazin-1-yl)-N-[4-(trifluoromethyl)pyridin-2-yl]benzamide]	10 to 100 nM
C[C@@H]1C[C@@H](c2nc(-c3ccc(C(=O)Nc4cc(C(F)(F)F)ccn4)cc3)c3c(N)nccn23)CN(C(=O)C2(C)COC2)C1 [Example 375, 4-(8-amino-3-{(3R,5R)-5-methyl-1-[(3-methyloxetan-3-yl)carbonyl]piperidin-3-yl}imidazo[1,5-a]pyrazin-1-yl)-N-[4-(trifluoromethyl)pyridin-2-yl]benzamide]	10 to 100 nM
C[C@H]1C[C@@H](c2nc(-c3ccc(C(=O)Nc4cc(C(F)(F)F)ccn4)cc3)c3c(N)nccn23)CN(C(=O)C2(C)COC2)C1 [Example 374, 4-(8-amino-3-{(3R,5S)-5-methyl-1-[(3-methyloxetan-3-yl)carbonyl]piperidin-3-yl}imidazo[1,5-a]pyrazin-1-yl)-N-[4-(trifluoromethyl)pyridin-2-yl]benzamide]	< 10 nM
Cn1cc(CN2CCN[C@@H](c3nc(-c4ccc(C(=O)Nc5cc(C(F)(F)F)ccn5)cc4)c4c(N)nccn34)C2)cn1 [Example 566, 4-(8-amino-3-{(2R)-4-[(1-methyl-1H-pyrazol-4-yl)methyl]piperazin-2-yl}imidazo[1,5-a]pyrazin-1-yl)-N-[4-(trifluoromethyl)pyridin-2-yl]benzamide]	100 to 1000 nM
Nc1ncc(Br)n2c([C@@H]3CCCN(C(=O)C4CC4)C3)nc(-c3ccc(C(=O)Nc4cc(C(F)(F)F)ccn4)cc3)c12 [Example 577, (R)-4-(8-amino-5-bromo-3-(1-(cyclopropanecarbonyl)piperidin-3-yl)imidazo[1,5-a]pyrazin-1-yl)-N-(4-(trifluoromethyl)pyridin-2-yl)benzamide]	< 10 nM
CCN1C[C@@H](c2nc(-c3ccc(C(=O)Nc4cc(C(F)(F)F)ccn4)cc3)c3c(N)nccn23)CC[C@@H]1C(F)(F)F [Example 406, 4-{8-amino-3-[(3S,6R)-1-ethyl-6-(trifluoromethyl)piperidin-3-yl]imidazo[1,5-a]pyrazin-1-yl}-N-[4-(trifluoromethyl)pyridin-2-yl]benzamide]	10 to 100 nM
Nc1ncc(F)n2c([C@@H]3CCCN(C(=O)C4CC4)C3)nc(-c3ccc(C(=O)Nc4cc(C(F)(F)F)ccn4)cc3)c12 [Example 463, 4-{8-amino-3-[(3R)-1-(cyclopropylcarbonyl)piperidin-3-yl]-5-fluoroimidazo[1,5-a]pyrazin-1-yl}-N-[4-(trifluoromethyl)pyridin-2-yl]benzamide]	< 10 nM
CC1(C(=O)N2C[C@H](c3nc(-c4ccc(C(=O)Nc5cc(C(F)(F)F)ccn5)cc4)c4c(N)nccn34)CC(F)(F)C2)COC1 (stereo in doubt) [Example 376, 4-(8-amino-3-{5,5-difluoro-1-[(3-methyloxetan-3-yl)carbonyl]piperidin-3-yl}imidazo[1,5-a]pyrazin-1-yl)-N-[4-(trifluoromethyl)pyridin-2-yl]benzamide]	< 10 nM
